The record followed here is US20220204510A1, “2,3-DIHYDRO-1H-PYRROLIZINE-7-FORMAMIDE DERIVATIVE AND APPLICATION THEREOF” (CHIA TAI TIANQING PHARMACEUTICAL GROUP CO., LTD., priority 2018, published 2022).

Structures are written as SMILES.

The nature of data set [1]: Experiment on the liver-to-blood ratio in Balb/c mice, oral administration. The format is in vivo. The following applies: oral 3 mg/kg, Balb/c female mice; for AUC0-last: Liver; for Kp / AUC(0-t): mouse; for Kp: liver (tissue homogenate) / plasma, read-out: AUC Ratio (L/P) Liver/plasma exposure ratio; for AUC(0-t): Plasma. On the procedure: Experiment on the liver-to-blood ratio in Balb/c mice orally administered with the test compound Compound 18 was mixed with an aqueous solution containing 10% polyethylene glycol-15 hydroxystearate, and the mixture was vortexed and sonicated to prepare a 0.3 mg/mL uniform suspension for later use. Balb/c female mice aged 7 to 10 weeks were orally administered with the candidate compound solution at a dose of 3 mg/kg. Whole blood at a certain time point was collected and plasma was prepared. Liver tissues at the corresponding time point were collected to prepare a tissue homogenate. Drug concentration was analyzed by LC-MS/MS and pharmacokinetic parameters were calculated with Phoenix WinNonlin software. Compound 25 was mixed with an aqueous solution containing 10% polyethylene glycol-15 hydroxystearate, and the mixture was vortexed and sonicated to prepare a 0.3 mg/mL clear solution for later use. Balb/c female mice aged 7 to 10 weeks were orally administered with the candidate compound solution at a dose of 3 mg/kg. Whole blood at a certain time point was collected and plasma was prepared. Liver tissues at the corresponding time point were collected to prepare a tissue homogenate. Drug concentration was analyzed by LC-MS/MS and pharmacokinetic parameters were calculated with Phoenix WinNonlin software.

Data set [2] is described as follows: Experiment on cytotoxicity (CellTiter-Glo, 3 days). In kind it is cell-based. The following applies: 3 days incubation, read-out: 50% cytotoxic concentration (CC50). As for the experimental part:
• 1. The compound was diluted with DMSO (dimethyl sulfoxide) in a 3-fold gradient for 9 concentrations, and added into a 96-well plate in duplicate. The compound concentration was 200-fold of the final test concentration. • 2. The cells were rinsed with PBS (phosphate buffered saline) once, added with 0.25% trypsin and digested for about 2-5 min in a 37° C., 5% CO2 incubator. Then the digestion was terminated with a cell culture medium and the cells were dispersed into single cells by pipetting with a pipettor. • 3. The cell density was counted with a cell counter, and adjusted to the required density with the medium. • 4. The cells were added into a 96-well plate that had been added with the compound. The final concentration of DMSO in each well was 0.5%. Wells containing 0.5% DMSO were used as non-toxic negative controls, and wells containing the cell culture medium were used as 100% cytotoxicity controls. Then the cell plate was incubated in a 37° C., 5% CO2 cell incubator for 3 days. • 5. The chemiluminescence signal (RLU, relative chemiluminescence unit) of each well in the cell plate was detected with the cell viability detection kit CellTiter-Glo using the multi-functional microplate reader Envision, with instructions on the kit followed. • 6. The raw data (RLU) were substituted into the following formula to calculate the cell viability of each well (cell viability %): […]
A general note: Cellular ATP, detected with luciferase, serves as a proxy for viable cell number.

For the next data set, the system named is HBV. Description: qPCR test in the HBV in vitro test (HBV DNA in HepG2.2.15 cells). The format is cell-based. The settings on record: Hepatitis B virus, 192 h, HBV DNA in HepG2.2.15 culture medium, day 8, read-out: Half maximal inhibitory concentration (EC50) of HBV. As for the experimental part: To evaluate the inhibitory effect of the compound on HBV by detecting content of HBV DNA in HepG2.2.15 cells in a real-time qPCR test, with EC50 of the compound as an indicator.
3.1. HepG2.2.15 cells (4×10^4 cells/well) were inoculated into a 96-well plate and cultured at 37° C. in 5% CO2 overnight. 3.2. On day 2, the compound was 3-fold diluted in gradient for a total of 8 dilution gradients. The compound at different concentrations was added into the culture wells in duplicate. The final concentration of DMSO in the culture medium was 1%. 1 μM GLS4 was used as a 100% inhibition control (the structure of GLS4 disclosed in WO2008154817A1 is as follows:
1% DMSO was used as a 0% inhibition control. 3.3. On day 5, the culture medium was replaced with a fresh culture medium containing the compound. 3.4. On day 8, the culture medium in the culture wells was collected, and the high-throughput DNA purification kit (Qiagen-51162) was used to extract DNA. For specific steps, refer to the product manual.
3.6. Each well of the 96-well PCR plate was added with 15 μL of the reaction mixture, and then with 10 μL of sample DNA or HBV DNA standard. 3.7. The reaction conditions for PCR: heating at 95° C. for 10 min, degeneration at 95° C. for 15 s, and extension at 60° C. for 1 min, with a total of 40 cycles.
3.8.1. Calculation of the inhibition percentage: % Inh.=[1−(DNA copy number in the sample−DNA copy number in 1 μM GLS4)/(DNA copy number in the DMSO control−DNA copy number in 1 μM GLS4)]×100. 3.8.2. Calculation of EC50: half maximal inhibitory concentration (EC50) of the compound for HBV was calculated using GraphPad Prism software. 3.8.3.

As to `C[C@]1(NC(=O)C(=O)c2c(Cl)c(C(=O)Nc3ccc(F)c(F)c3)c3n2CCC3)CC[C@H](CC(=O)O)CC1` [Compound 18], in data set [1], the AUC0-last turned out to be 75412 nmol·h/kg, the Kp is 20.4 and the AUC(0-t) was found to be 3.69 µM·h. Further, in data set [2], the CC50 at 3 days is above 50000 nM. For the same compound, the EC50 with HBV was 11 nM.

Turning to `C[C@]1(NC(=O)C(=O)c2c(Cl)c(C(=O)Nc3cc(F)c(F)c(F)c3)c3n2CCC3)CC[C@H](CC(=O)O)CC1` [Compound 25], in data set [1], the AUC0-last is 86036 nmol·h/kg, the Kp turned out to be 24.7 and the AUC(0-t) is 3.48 µM·h. The CC50 at 3 days in data set [2] is above 50000 nM. Also, the EC50 in the data set with HBV came to 4 nM.

In general, AUC(0-t) refers to the area under the concentration-time curve up to a stated or last time point.
